# Assay results as given in US12215123B2, “Cordycepin-based derivatized compound with anti-tumor effect” (NANJING TECH UNIVERSITY, priority 2022, dated 2025).
# Counter-ions that a name gives are not always drawn. Like-named read-outs stand apart in the source and are kept apart here.
# Columns and labels:
# [1] = test system: small cell lung cancer cell line H69; assay: MTT proliferation, small cell lung cancer cell line H69; format: cell-based; conditions: read-out: IC50 (μM) of compounds in small cell lung cancer cells, H69
# Description: (§1) The method for determining inhibitory activities of the compounds on the proliferation of tumor cells by an MTT method is as follows: a bottle of cells in a good state in an exponential growth phase is added with 0.25% trypsin digestive juice, the digestion makes adherent cells fall off, with 2 to 4×10^4 cells/mL, and a cell suspension is prepared. The cell suspension is inoculated on a 96-well plate, with 90 μL/well, and cultured in a constant-temperature CO2 incubator for 24 hours. The prepared compounds are added for testing, with 10 μL/well, and cultured for 72 hours. An MTT reagent is added into a 96-well plate, with 10 μL/well, and reacts in an incubator for 4 hours to absorb a supernatant, and then dimethyl sulfoxide is added, with 100 μL/well. After a crystal is dissolved, an absorbance of each well at a wavelength of 570 nm is measured by an enzyme-linked immunosorbent assay instrument, and a cell inhibition rate is calculated. An S curve is made with a compound concentration and a corresponding inhibition rate. Therefore, IC50 of a corresponding compound is obtained.
# (§2) Anti-tumor dose-effect relationship curves of cordycepin and compounds 1, 2, 4, 5, 7, 8, 10, 12, 16, 18, 21, 23, 24, 35 and 38 in small cell lung cancer cell lines H1048, H446 and H69 were analyzed by an MTT experimental method.
# [2] = test system: gastric cancer cell line BGC-823; assay: MTT proliferation, gastric cancer cell line BGC-823; format: cell-based; conditions: read-out: IC50 (μM) in gastric cancer cells, BGC-823
# Description: as §1
# (§3) Anti-tumor dose-effect relationship curves of the cordycepin and 40 compounds prepared in gastric cancer cell lines AGS and BGC-823 were analyzed by an MTT experimental method.
# [3] = test system: small cell lung cancer cell line H446; assay: MTT proliferation, small cell lung cancer cell line H446; format: cell-based; conditions: for IC50: read-out: IC50 (μM) of compounds in small cell lung cancer cells, H446
# Description: as §1, §2
# [4] = test system: wild-type AB-line zebrafish; conditions: 3 dpf to 5 dpf, 35° C.; survival rate>90% and teratogenicity<20%
# Description: The zebrafish model is a wild-type AB-line zebrafish from College of Biotechnology and Pharmaceutical Engineering, Nanjing Tech University, and is carried out by a natural mating reproduction method, with 30 zebrafish of 2 dpf in each experimental group. The zebrafish is fed in fish culture water at 28° C. (water quality:200 mg of instant sea salt and CaCO3 are added into 1 L of reverse osmosis water with a conductivity of 480 uS/cm to 510 uS/cm, a pH value of 6.9 to 7.2, and a hardness of 53.7 mg/L to 71.6 mg/L), and the feeding management meets the requirements of international AAALAC certification.
# 240 3 dpf wild-type AB-line zebrafish were randomly selected in an 8-well plate, with 30 zebrafish in each well, and 3 mL of fish culture water in each well, the cordycepin was diluted according to a maximum lethal dose, dissolved in DMSO, and added into each well according to a concentration gradient (the maximum lethal dose was diluted by 100 times, in which 8 concentration gradient values were taken for the experiment), and meanwhile, a normal control group, a solvent control group G (5% glucose) and a solvent control group D (DMSO) were set. During the experiment, the zebrafish in each group were cultured at 35° C., after the zebrafish were treated to be 5 dpf with a sample to be tested, lethal and developmental malformation conditions of the zebrafish in different doses were investigated respectively, and a maximum tolerance dose (MTD) of the sample to be tested to normal zebrafish was determined under a concentration when survival rate>90% and teratogenicity<20%.
# [5] = test system: gastric cancer cell line AGS; assay: MTT proliferation, gastric cancer cell line AGS; format: cell-based; conditions: read-out: IC50 (μM) in gastric cancer cells, AGS
# Description: as §1, §3
# [6] = test system: small cell lung cancer cell line H1048; assay: MTT proliferation, small cell lung cancer cell line H1048; format: cell-based; conditions: read-out: IC50 (μM) of compounds in small cell lung cancer cells, H1048
# Description: as §1, §2
# B16-F10 melanoma cells = assay: Mouse transplanted melanoma model; format: in vivo, C57BL/6j nude mice; conditions: B16-F10 transplanted mice; for tumor volume: intragastric 500 ug/time/animal every other day, 24 days, blank 1760 mm^3
# Description: The feeding of the mouse model in the drug evaluation follows that: mice are fed and treated in a laminar flow cabinet, with 5 nude mice in each cage, drinking water and feedstuffs are added once every 3 days, and paddings are replaced once a week; a number of mice kept in each cage is no more than 5, the mice in separate cages are kept in groups as far as possible, and the mice should not be kept in a single cage; the animal management must conform to the relevant national standards on animal feeding management, and the behavioral needs of animals should be concerned at the same time to avoid unnecessary stress; the normal physiological and behavioral needs of animals, such as defecation, urination, constant body temperature maintenance, normal activities, posture adjustment and reproduction are met; good ventilation and dry animals are kept; the animals can access to drinking water and food at will, and supplementation, replacement and cleaning operations are easily carried out; a solid and safe environment is provided to avoid accidents of animals, such as escaping or limb trapping in a gap; the animals are avoided from being damaged by sharp edges or protrusions; and the animals are not disturbed during observation.
# A mouse transplanted melanoma model was established and a drug was evaluated. 2.5×10^5 B16-F10 melanoma cells were suspended in 100 μL of PBS to be inoculated into an outer side of thigh of left lower limb of C57BL/6j nude mice. One week later, when the transplanted tumor reached about 100 mm^3, the mice were randomly divided into ten groups, with 10 mice in each group, comprising a blank control group, a cordycepin group, a compound 13 group, a compound 14 group, a compound 17 group, a compound 19 group, a compound 22 group, a compound 26 group, a compound 29 group and a compound 34 group respectively. The blank control group was intragastrically administrated with a nutritional agent such as a corn steep liquor and DMSO as a solvent control every day for 24 consecutive days, and the compound groups were intragastrically administrated with corresponding compounds (500 ug/time/animal in all cases) every other day for 24 consecutive days. […] The mice were killed after the experiment, blood and corresponding tissue samples were collected, tumor bodies were immediately photographed and weighed, and some tumor tissues were fixed in a formalin solution to be further detected. Two vertical diameters (length and width) of the transplanted tumor were measured with a caliper every two days to calculate a size of the transplanted tumor, and a tumor value was calculated according to a formula: tumor volume (mm^3)=[…].
# [7] = Homo sapiens, MTT, 72 hours, BGC-823
# [8] = Homo sapiens, NCI-H446, 72 h, MTT, 72 hours, H446
# [9] = Homo sapiens, NCI-H1048, 72 h, MTT, 72 hours, H1048
Compound,"IC50 [2, 7] [µM]",Maximum tolerance dose (MTD) in zebrafish model [4] [µM],"IC50 ([5]; MTT, 72 hours, AGS) [µM]",other results
"Nc1ncnc2c1ncn2[C@@H]1O[C@H](COP(=O)(O)O)CC1O (stereo partly shown) [Compound 2, (5-(6-amino-9H-purine-9-yl)-4-hydroxytetrahydrofuran-2-yl)dihydromethyl phosphate]",209,845,142,"IC50 ([1]; MTT, 72 hours, H69): 50.2 µM; IC50 [3, 8]: 76.8 µM; IC50 [6, 9]: 55.3 µM"
CC(C)OC(=O)C(C)NP(=O)(COC[C@@H]1CC(O)[C@H](n2cnc3c(N)ncnc32)O1)Oc1ccccc1 (stereo partly shown) [Compound 7],,62,,"IC50 ([1]; 72 h): 9.59 µM; IC50 ([2]; Homo sapiens, BGC-823, 72 h): 1.61 µM; IC50 ([3]; Homo sapiens, NCI-H446, 72 h): 20.5 µM; IC50 ([5]; 72 h): 2.46 µM; IC50 ([6]; Homo sapiens, NCI-H1048, 72 h): 12.1 µM"
"COC(=O)C(C)NP(=O)(Oc1ccccc1)OC1C[C@@H](CO)O[C@H]1n1cnc2c(NC(=O)c3ccncc3)ncnc21 (stereo partly shown) [Compound 34, methyl(((5-(hydroxymethyl)-2-(6-(isonicotinamide)-9H-purin-9-yl)tetrahydrofuran-3-yl)oxy)(phenoxy)phosphoryl)alanine salt]",24.2,,19.4,tumor volume (B16-F10 melanoma cells): about 240 mm^3
"CC(C)OC(=O)C(C)NP(=O)(COC[C@H]1O[C@@H](n2cnc3c(N)ncnc32)C(O)[C@H]1N=[N+]=[N-])Oc1ccccc1 (stereo partly shown) [Compound 27, isopropyl((((5-(6-amino-9H-purine-9-yl)-3-azide-4-hydroxytetrahydrofuran-2-yl)methoxy)methyl)(phenoxy)phosphoryl)alanine ester]",,,,"inhibition of melanoma (B16-F10 melanoma cells; same method as Embodiment 46): the Same Inhibition Effect as a Compound 26; IC50 ([2]; Homo sapiens, BGC-823, 72 h): 10.2 µM; IC50 ([5]; 72 h): 8.42 µM"
CC(C)(C)C(=O)OCOP(=O)(COC[C@]1(N=[N+]=[N-])CC(O)[C@H](n2cnc3c(N)ncnc32)O1)OCOC(=O)C(C)(C)C (stereo partly shown) [Compound 37],56.1,0.17,64.2,
"CC(C)Nc1nc2c(N)ncnc2n1[C@@H]1O[C@H](COP(=O)(O)O)CC1O (stereo partly shown) [Compound 39, (5-(6-amino-8-(isopropylamino)-9H-purin-9-yl)-4-hydroxytetrahydrofuran-2-yl)dihydromethyl phosphate]",167,28,187,
CC(C)(C)C(=O)OCOP(=O)(COC[C@@H]1CC(O)[C@H](n2cnc3c(N)nc(S)nc32)O1)OCOC(=O)C(C)(C)C (stereo partly shown) [Compound 19],0.76,,0.46,tumor volume (B16-F10 melanoma cells): about 240 mm^3
"[N-]=[N+]=N[C@@H]1C(O)[C@H](n2cnc3c(N)ncnc32)O[C@@H]1COP(=O)(O)O (stereo partly shown) [Compound 25, (5-(6-amino-9H-purine-9-yl)-3-azide-4-hydroxytetrahydrofuran-2-yl)dihydromethyl phosphate]",58.5,12,47.6,
"Nc1nc(F)nc2c1ncn2[C@@H]1O[C@H](COP(=O)(O)O)CC1O (stereo partly shown) [Compound 13, (5-(6-amino-2-fluoro-9H-purine-9-yl)-4-hydroxytetrahydrofuran-2-yl)dihydromethyl phosphate]",36.8,0.05,32.5,
COC(=O)C(NP(=O)(OC[C@@H]1CC(O)[C@H](n2cnc3c(N)ncnc32)O1)Oc1ccccc1)C(C)C (stereo partly shown) [Compound 6],73.2,384,66.8,
O=C(Nc1ncnc2c1ncn2[C@@H]1O[C@H](CO)CC1O)C1CCCC1 (stereo partly shown) [Compound 11],10.3,75,13,
"Nc1nc(F)nc2c1ncn2C1OC(COC2CC(CO)C(O)C2O)CC1O (stereo not shown) [Compound 36, 3-((5-(6-amino-2-fluoro-9H-purin-9-yl)-4-hydroxytetrahydrofuran-2-yl)methoxy)-5-(hydroxymethyl)cyclopentane-1,2-diol]",90.2,0.02,103,
CC(C)C(=O)OCOP(=O)(COC[C@@H]1CC(O)[C@H](n2cnc3c(N)ncnc32)O1)OCOC(=O)C(C)C (stereo partly shown) [Compound 5],91.5,525,72.7,"IC50 ([1]; MTT, 72 hours, H69): 53.4 µM; IC50 [3, 8]: 43.3 µM; IC50 [6, 9]: 40.9 µM"
(5-(2-((E)-2-bromocarbonyl)-6-(isonicotinamide)-9H-purin-9-yl)-4-hydroxytetrahydrofuran-2-yl)dihydromethyl phosphate [Compound 35],,0.025,69.4,"IC50 ([1]; MTT, 72 hours, H69): 21.5 µM; IC50 ([2]; MTT, 72 hours, BGC-823): 71 µM; IC50 ([3]; MTT, 72 hours, H446): 21.4 µM; killing effect on the three lines of cells in vitro ([3]; stated in words for all three lines H1048, H446 and H69, MTT): strong killing effect; IC50 ([6]; MTT, 72 hours, H1048): 32.6 µM"
